Assay results as given in patent US20060182763A1, “CD8 T cell epitopes in HPV 16 E6 and E7 proteins and uses thereof” (priority 2005, published 2006).
Values joined by “and” are separate entries in the source; they are usually repeats but may differ in a detail not shown here. Identical values can stand only once. “Also recorded” adds a separate entry of the source. Where no end group is shown, it is not given here.

Legend:
Assay type in all cases: cell-based, human
T cell clones [1] = assay: IFN-γ ELISPOT of T cell clones with peptides and autologous EBV-LCL; conditions: for T cell clones positive in screening ELISPOT: 94 out of 400 clones screened; for retest of screen-positive T cell clones (ELISPOT): 1000 T cell clone cells in duplicate; for ELISPOT response (spot-forming units) of T cell clones: subject 15 clones specific for E6 26-40, peptides 10 μM; for ELISPOT response of 27G6 clone: subject 1, E7-specific clone; for ELISPOT response (spot forming units) of T cell clones: 10 μM; for ELISPOT response of T cell clones: subject 5 clones #1-5 and #17-5
Protocol: A method described previously was used with some modifications (Larsson, M. et al., 2002). Briefly, a 96-well plate (Millititer, Millipore, Bedford, Mass.) was coated with 5μg/ml primary anti-γ-IFN monoclonal antibody (Mabtech, Stockholm, Sweden) and stored at 4° C. overnight. The plate was then washed 4 times with phosphate buffered saline (PBS) and blocked using RPMI 1640 plus 5% pooled human serum for 1 h at 37° C.
To examine the pattern of CD8 T cell epitopes (FIG. 1), 1×10^5cells of a CD8 T cell line were plated in each well. Overlapping 15-mer peptides (overlapping by the 10 central amino acids) were pooled to 10 groups (each group containing 3 peptides) and tested in duplicate (10 μM for each peptide) along with no peptide control. For screening T cell clones, 50 μl of culture media containing the T cell clones was added with 1×10^5 autologous Epstein-Barr virus-transformed B lymphoblastoid cell line (EBV-LCL) cells (data not shown). With the remaining experiments using T cell clones, 1×10^3 T cell clones were plated along with 1×10^5EBV-LCL cells to reduce the number of T cell clones necessary for analysis. All peptides were used at a concentration of 10 μM.
Autologous EBV-LCL cells were incubated with E6-vac, E7-vac or WR at the multiplicity of infection of 10 for 1 h at 37° C. prior to being plated (FIG. 2B). Phytohemagglutinin (PHA) at 10 μg/ml was added as positive control. After a 24 h incubation at 37° C., the plate was washed 4 times with PS plus 0.05% Tween-20. A total of 50 μl of secondary antibody (1 μg/ml biotin-conjugated anti-IFNγ monoclonal antibody; Mabtech) was added and the plate was incubated for 2 h at 37° C. The plate was then washed 4 times with PBS plus 0.1% Tween-20. Avidin-bound biotinylated horseradish peroxidase H (Vectastain Elite kit; Vector laboratories, Inc., Burligame, Calif.) was added […] and air-dried overnight. Spot forming units were counted using an automated ELISPOT analyzer (Cell Technology, Inc., Jessup, Md.) and were normalized to number of spot forming units per 1×10^6 cells for CD8 T cell lines. Response was considered positive when the number of spot forming units in wells with peptide pools was at least double that seen in the no peptide control wells.
To isolate T cell clones recognizing the E6 antigenic epitope from subject 15, their CD8 T cell lines were stimulated as described above for two additional 7-day cycles, so the frequency of targeted T cell clones would be above the threshold of selection (≧0.1%). The peptide-specific T cells were positively selected using the IFN-γ secretion assay enrichment kit, according to the manufacturer's instructions (Miltenyi Biotec), after stimulating cells with 10 μM each of peptides contained in the E6 16-40 (SEQ ID NO. 36) pool. Selected cells were plated at a concentration of 0.5 cells per well in the presence of a 0.5× feeder cell mixture (Yssel's media containing 1% pooled human serum, penicillin G 100 units/ml, streptomycin 100 μg/ml, 5×10^5/ml irradiated allogenic PBMC, 5×10^4/ml irradiated JY cells, 0.1 μg/ml PHA, with/without 10 u/ml rIL-4). Control wells for growth contained 1 to 1000 cells per well. On day 5, 100 μl of Yssel's media containing 20 U/ml of rIL-2 was added to each well. Growing microcultures were transferred to 24-well plates containing 1 ml of 1× feeder cell mixture per well (Yssel's media containing 1% pooled human serum, penicillin G 100 units/ml, streptomycin 100 μg/ml, 1×10^6/ml irradiated allogenic PBMC, 1×10^5/ml irradiated JY cells and 0.1 μg/ml PHA).
All peptides were used at a concentration of […] and 1×10^3 T cell clones along with 1×10^5 autologous LCL cells were plated to each well.

CD8 T cell line = assay: IFN-γ ELISPOT of CD8 T cell lines with pooled overlapping 15-mer peptides; parameters: key to CD8 T cell response to HPV 16 E6 region: The strongest T cell response for a given subject is indicated with upper case X; x: subdominant response is indicated with lower case X; conditions: for CD8 T cell response to HPV 16 E6 region: pooled 15-mer peptides, 10 μM each
T cell clones [2] = assay: ELISPOT with E6-vac/E7-vac-infected autologous EBV-LCL (naturally processed epitope)
[3] = subject 20, E6 16-40 region (eight clones), E6 31-55 region (four clones)
[4] = subject 20 clones #60-20, #127-20, #138-20

LQTTIHDIILECVYC (Human Papilloma Virus 16; CHAIN residues 26-40 of the E6 protein) [E6 26-40]
screen-positive T cell clones positive for the 15-mer peptide on retest (T cell clones [1]; subject 5): none of 5
screen-positive T cell clones positive for the 15-mer peptide on retest (T cell clones [1]; subject 7, of 10 (E6 16-40 region) or six (E6 46-70 region) clones): 10 clones
T cell clones positive in screening ELISPOT (T cell clones [1]; subject 15): Thirteen
retest of screen-positive T cell clones (ELISPOT) (T cell clones [1]; subject 15): confirming their specificity
retest of screen-positive T cell clones (ELISPOT) (T cell clones [1]; subject 15, listed as E6 24-60): confirmed
screen-positive T cell clones positive for the 15-mer peptide on retest (T cell clones [1]; subject 15, of 14 clones positive for E6 16-40 region): 10 clones
ELISPOT response (spot-forming units) of T cell clones (T cell clones [1]): similar
screen-positive T cell clones positive for the 15-mer peptide on retest (T cell clones [1]; [3]): eight

E6 91-115: pool of three overlapping 15-mers covering HPV16 E6 91-115 (YGTTLEQQYNKPLCDLLIRCINCQK; cysteine pairing not given here; also: pool of overlapping 15-mers)
CD8 T cell response to HPV 16 E6 region (CD8 T cell line; Subject 18): X

EDLLMGTL (Human Papilloma Virus 16; CHAIN residues 80-87 of the E7 protein) [E7 80-87]
ELISPOT response of 27G6 clone (T cell clones [1]): smaller response; also recorded: partial IFN-γ secretion

E6 61-85: pool of three overlapping 15-mers covering HPV16 E6 61-85 (YRDGNPYAVCDKCLKFYSKISEYRH; cysteine pairing not given here; also: pool of overlapping 15-mers)
CD8 T cell response to HPV 16 E6 region (CD8 T cell line; Subject 18): x
CD8 T cell response to HPV 16 E6 region (CD8 T cell line; Subject 23): x

IHDIILEC (Human Papilloma Virus 16; CHAIN residues 30-37 of the E6 protein) [E6 30-37]
ELISPOT response (spot forming units) of T cell clones (T cell clones [1]; [4]): Less number of spot forming units

E6 144-154: HPV16 E6 11-mer, residues 144-154 (MSCCRSSRTRR; Human Papilloma Virus 16; CHAIN residues 144-154 of the E6 protein)
ELISPOT response of T cell clones (T cell clones [1]): None of the 9-mers and the 11-mers was positive

TTIHDIILEC (Human Papilloma Virus 16; CHAIN residues 28-37 of the E6 protein) [E6 28-37]
ELISPOT response (spot-forming units) of T cell clones (T cell clones [1]): similar

E6 31-37: HPV16 E6 7-mer, residues 31-37 (HDIILEC; Human Papilloma Virus 16; CHAIN residues 31-37 of the E6 protein)
ELISPOT response (spot forming units) of T cell clones (T cell clones [1]; [4]): Less number of spot forming units

DFAFRDLCIVY (Human Papilloma Virus 16; CHAIN residues 51-61 of the E6 protein) [E6 51-61]
ELISPOT response (spot forming units) of T cell clones (T cell clones [1]; subject 7 subdominant epitope, clones #15-7, #41-7, #54-7, #86-7): more number of spot forming units

E6 141-155: HPV16 E6 15-mer peptide, residues 141-155 (GRCMSCCRSSRTRRE; Human Papilloma Virus 16; CHAIN residues 141-155 of the E6 protein)
screen-positive T cell clones positive for the 15-mer peptide on retest (T cell clones [1]; subject 5): Two
ELISPOT response of T cell clones (T cell clones [1]): confirmed
recognition of E6-vac infected autologous LCL / natural processing (T cell clones [2]; subject 5 clones #1-5 and #17-5): not with E6-vac infected autologous LCL; also recorded: not the E6-vac infected ones

QLCTELQTTIHDIIL (QLCTELETTIHDIIL; Human Papilloma Virus 16; CHAIN residues 21-35 of the E6 protein) [E6 21-35]
T cell clones positive in screening ELISPOT (T cell clones [1]; subject 15): three
retest of screen-positive T cell clones (ELISPOT) (T cell clones [1]; subject 15): negative; also recorded: false positives

E6 32-38: HPV16 E6 7-mer, residues 32-38 (DIILECV; Human Papilloma Virus 16; CHAIN residues 32-38 of the E6 protein)
ELISPOT response (spot forming units) of T cell clones (T cell clones [1]; [4]): Less number of spot forming units

LEDLLMGT (Human Papilloma Virus 16; CHAIN residues 79-86 of the E7 protein) [E7 79-86]
ELISPOT response of 27G6 clone (T cell clones [1]): smaller response; also recorded: did not show any activity above the background

E6 30-38: HPV16 E6 9-mer peptide, residues 30-38 (IHDIILECV; Human Papilloma Virus 16; CHAIN residues 30-38 of the E6 protein)
ELISPOT response (spot forming units) of T cell clones (T cell clones [1]; subject 7 dominant epitope, clones #12-7, #40-7, #59-7): positive
ELISPOT response (spot forming units) of T cell clones (T cell clones [1]; [4]): positive; also recorded: similar; also recorded: large numbers of spot forming units

E6 46-70: pool of three 15-mers: E6 46-60, E6 51-65, E6 56-70 (RREVYDFAFRDLCIVYRDGNPYAVC; not fully specified; cysteine pairing not given here)
CD8 T cell response to HPV 16 E6 region (CD8 T cell line; Subject 1): X
CD8 T cell response to HPV 16 E6 region (CD8 T cell line; Subject 2): X
CD8 T cell response to HPV 16 E6 region (CD8 T cell line; Subject 7): x
ELISPOT response of CD8 T cell line to peptide pools of E6 and E7 (CD8 T cell line; subject 1, pools of three 15-mers): demonstrated; also recorded: presence of one antigenic epitope
T cell clones positive with E6-vac infected autologous LCL (T cell clones [2]; subject 7, MOI 5): six of 10 and 6 of 10

AFRDLCIVY (Human Papilloma Virus 16; CHAIN residues 53-61 of the E6 protein) [E6 53-61]
ELISPOT response of E6-specific T cell clones (T cell clones [1]; subject 1 clones 2, 9 and 69): response

E6 136-158: pool of overlapping 15-mers covering HPV16 E6 136-158 (RGRWTGRCMSCCRSSRYRRETQK; cysteine pairing not given here; also: pool of overlapping 15-mers)
CD8 T cell response to HPV 16 E6 region (CD8 T cell line; Subject 5): x

HDIILECVYCKQQLL (Human Papilloma Virus 16; CHAIN residues 31-45 of the E6 protein) [E6 31-45]
screen-positive T cell clones positive for the 15-mer peptide on retest (T cell clones [1]; [3]): four

E6 142-152: HPV16 E6 11-mer, residues 142-152 (RCMSCCRSSRT; Human Papilloma Virus 16; CHAIN residues 142-152 of the E6 protein)
ELISPOT response of T cell clones (T cell clones [1]): None of the 9-mers and the 11-mers was positive

E6 143-153: HPV16 E6 11-mer, residues 143-153 (CMSCCRSSRTR; Human Papilloma Virus 16; CHAIN residues 143-153 of the E6 protein)
ELISPOT response of T cell clones (T cell clones [1]): None of the 9-mers and the 11-mers was positive

E6 31-39: HPV16 E6 9-mer peptide, residues 31-39 (HDIILECVY; Human Papilloma Virus 16; CHAIN residues 31-39 of the E6 protein)
ELISPOT response (spot forming units) of T cell clones (T cell clones [1]; [4]): positive; also recorded: similar; also recorded: large numbers of spot forming units

PRKLPQLCTELQTTI (Human Papilloma Virus 16; CHAIN residues 16-30 of the E6 protein) [E6 16-30]
T cell clones positive in screening ELISPOT (T cell clones [1]; subject 15): one
retest of screen-positive T cell clones (ELISPOT) (T cell clones [1]; subject 15): negative; also recorded: false positives
